Experimental findings from patent publication EP2758401B1 (Bayer Intellectual Property GmbH, priority 2011, dated 2013) are described below.

Assay [1] concerns the target T1, MKNK1 (Homo sapiens, UniProt Q9BUB5, T385D).
T1 construct: GST (N); purchased Carna Biosciences 02-145; host or cells: insect cells (baculovirus expression system)
As to the kind of experiment: MKNK1 kinase assay (TR-FRET). It counts as biochemical. The settings on record: ATP final conc. 10 µM; 15 min pre-incubation; reaction time 45 min at 22°C. Here is the method: MKNK1-inhibitory activity of compounds of the present invention was quantified employing the MKNK1 TR-FRET assay as described in the following paragraphs.
As substrate for the kinase reaction the biotinylated peptide biotin-Ahx-[…] (C-terminus in amide form) was used which can be purchased e.g. form the company Biosyntan (Berlin-Buch, Germany).
For the assay 50 nL of a 100fold concentrated solution of the test compound in DMSO was pipetted into a black low volume 384well microtiter plate (Greiner Bio-One, Frickenhausen, Germany), 2 µL of a solution of MKNK1 in aqueous assay buffer [50 mM HEPES pH 7.5, 5 mM magnesium chloride, 1.0 mM dithiothreitol, 0.005% (v/v) Nonidet-P40 (Sigma)] was added and the mixture was incubated for 15 min at 22°C to allow pre-binding of the test compounds to the enzyme before the start of the kinase reaction. Then the kinase reaction was started by the addition of 3 µL of a solution of adenosine-tri-phosphate (ATP, 16.7 µM => final conc. in the 5 µL assay volume is 10 µM) and substrate (0.1 µM => final conc. in the 5 µL assay volume is 0.06 µM) in assay buffer and the resulting mixture was incubated for a reaction time of 45 min at 22°C.
The resulting mixture was incubated for 1 h at 22°C to allow the formation of complex between the phosphorylated biotinylated peptide and the detection reagents. Subsequently the amount of phosphorylated substrate was evaluated by measurement of the resonance energy transfer from the Eu-chelate to the streptavidine-XL. Therefore, the fluorescence emissions at 620 nm and 665 nm after excitation at 350 nm were measured in a TR-FRET reader, e.g. a Rubystar (BMG Labtechnologies, Offenburg, Germany) or a Viewlux (Perkin-Elmer). The ratio of the emissions at 665 nm and at […] was taken as the measure for the amount of phosphorylated substrate. The data were normalised (enzyme reaction without inhibitor = 0 % inhibition, all other assay components but no enzyme = 100 % inhibition). […] Table 1: MKNK1 IC50s

Assay [2] deals with T1, MKNK1. As to the kind of experiment: MKNK1 kinase high ATP assay (TR-FRET). It counts as biochemical. The settings on record: ATP final conc. 2 mM; 15 min pre-incubation; reaction time 30 min at 22°C. Here is the method: MKNK1-inhibitory activity at high ATP of compounds of the present invention after their preincubation with MKNK1 was quantified employing the TR-FRET-based MKNK1 high ATP assay as described in the following paragraphs.
As substrate for the kinase reaction the biotinylated peptide biotin-Ahx-[…] (C-terminus in amide form) was used, which can be purchased e.g. from the company Biosyntan (Berlin-Buch, Germany).
For the assay 50 nL of a 100fold concentrated solution of the test compound in DMSO was pipetted into a black low volume 384well microtiter plate (Greiner Bio-One, Frickenhausen, Germany), 2 µL of a solution of MKNK1 in aqueous assay buffer [50 mM HEPES pH 7.5, 5 mM magnesium chloride, 1.0 mM dithiothreitol, 0.005% (v/v) Nonidet-P40 (Sigma)] was added and the mixture was incubated for 15 min at 22°C to allow pre-binding of the test compounds to the enzyme before the start of the kinase reaction. Then the kinase reaction was started by the addition of 3 µL of a solution of adenosine-tri-phosphate (ATP, 3.3 mM => final conc. in the 5 µL assay volume is 2 mM) and substrate (0.1 µM => final conc. in the 5 µL assay volume is 0.06 µM) in assay buffer and the resulting mixture was incubated for a reaction time of 30 min at 22°C. The concentration of MKNK1 was adjusted depending of the activity of the enzyme lot and was chosen appropriate to have the assay in the linear range, typical concentrations were in the range of 0.003 µg/mL. The reaction was stopped by the addition of 5 µL of a solution of TR-FRET detection reagents (5 nM streptavidine-XL665 [Cisbio Bioassays, Codolet, France] and 1 nM anti-ribosomal protein S6 (pSer236)-antibody from Invitrogen [# 44921G] and 1 nM LANCE EU-W1024 labeled ProteinG [Perkin-Elmer, product no. AD0071]) in an aqueous EDTA-solution (100 mM EDTA, 0.1 % (w/v) bovine serum albumin in 50 mM HEPES pH 7.5).
The resulting mixture was incubated for 1 h at 22°C to allow the formation of complex between the phosphorylated biotinylated peptide and the detection reagents. Subsequently the amount of phosphorylated substrate was evaluated by measurement of the resonance energy transfer from the Eu-chelate to the streptavidine-XL. Therefore, the fluorescence emissions at 620 nm and 665 nm after excitation at 350 nm were measured in a TR-FRET reader, e.g. a Rubystar (BMG Labtechnologies, Offenburg, Germany) or a Viewlux (Perkin-Elmer). The ratio of the emissions at 665 nm and at […] was taken as the measure for the amount of phosphorylated substrate. The data were normalised (enzyme reaction without inhibitor = 0 % inhibition, all other assay components but no enzyme = 100 % inhibition).

T1 sequence (Q9BUB5 1-424 isoform Q9BUB5-2 T344D): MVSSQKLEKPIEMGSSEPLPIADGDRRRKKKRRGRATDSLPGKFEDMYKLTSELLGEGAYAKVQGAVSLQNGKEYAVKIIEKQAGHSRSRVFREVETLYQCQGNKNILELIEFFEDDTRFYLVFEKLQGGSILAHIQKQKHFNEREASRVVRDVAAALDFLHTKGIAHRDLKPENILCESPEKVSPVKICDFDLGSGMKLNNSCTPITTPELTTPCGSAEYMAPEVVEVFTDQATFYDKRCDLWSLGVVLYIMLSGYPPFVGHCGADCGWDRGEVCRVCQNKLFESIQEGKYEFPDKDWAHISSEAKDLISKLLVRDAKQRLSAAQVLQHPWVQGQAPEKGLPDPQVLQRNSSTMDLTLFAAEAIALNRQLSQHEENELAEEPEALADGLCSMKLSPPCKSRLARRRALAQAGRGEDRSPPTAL

As usually defined, the IC50 is the midpoint of a concentration-inhibition curve. Higher therefore signals weaker potency in that assay. In the case of `COc1cccc2oc(-c3cnc4ccc(OCC(N)C5CC5)nn34)cc12` (stereo not shown) [Example 41, 1-Cyclopropyl-2-{[3-(4-methoxy-1-benzofuran-2-yl)imidazo[1,2-b]pyridazin-6-yl]oxy}ethanamine], the IC50 stood at 12 nM on MKNK1 [1] and 27 nM against MKNK1 [2].

With `C[C@@H](N)COc1ccc2ncc(-c3cc4ccccc4o3)n2n1` [Example 42, (2R)-1-{[3-(1-Benzofuran-2-yl)imidazo[1,2-b]pyridazin-6-yl]oxy}propan-2-amine], the IC50 was 15 nM on MKNK1 [1] and 43 nM at MKNK1 [2].

Turning to `C[C@@H](N)COc1ccc2ncc(-c3cc4cc(Cl)ccc4o3)n2n1` [Example 43, (2R)-1-{[3-(5-Chloro-1-benzofuran-2-yl)imidazo[1,2-b]pyridazin-6-yl]oxy}-propan-2-amine], the results for the IC50 at MKNK1 [1] and at MKNK1 [2] were 33 nM and 62 nM, respectively.

For `NCC1(COc2ccc3ncc(-c4cc5ccccc5o4)n3n2)COC1` [Example 44, 1-[3-({[3-(1-Benzofuran-2-yl)imidazo[1,2-b]pyridazin-6-yl]oxy}methyl)oxetan-3-yl]methanamine], the IC50 at MKNK1 [1] was 52 nM; at MKNK1 [2], 63 nM.

`C[C@H](N)COc1ccc2ncc(-c3cc4c(F)cccc4o3)n2n1` [Example 45, (2S)-1-{[3-(4-Fluoro-1-benzofuran-2-yl)imidazo[1,2-b]pyridazin-6-yl]oxy}-propan-2-amine]: the IC50 is 17 nM at MKNK1 [1] and 71 nM at MKNK1 [2].

On to `N[C@H](COc1ccc2ncc(-c3cc4c(F)cccc4o3)n2n1)c1ccccc1` [Example 46, (1S)-2-{[3-(4-Fluoro-1-benzofuran-2-yl)imidazo[1,2-b]pyridazin-6-yl]oxy}-1-phenylethanamine], for which the IC50 at MKNK1 [1] stood at 36 nM; at MKNK1 [2], 67 nM.

Consider `C[C@H](CN)Oc1ccc2ncc(-c3cc4cccc(F)c4o3)n2n1` [Example 48, (2R)-2-{[3-(7-Fluoro-1-benzofuran-2-yl)imidazo[1,2-b]pyridazin-6-yl]oxy}-propan-1-amine], for which the IC50 turned out to be 71 nM on MKNK1 [1] and 115 nM against MKNK1 [2].

Regarding `Cc1ccc2oc(-c3cnc4ccc(O[C@H](C)CN)nn34)cc2c1` [Example 49], the IC50 on MKNK1 [1] was found to be 88 nM; at MKNK1 [2], 154 nM.

Turning to `N[C@H](COc1ccc2ncc(-c3cc4ccccc4o3)n2n1)Cc1ccccc1` [Example 50, (2S)-1-{[3-(1-Benzofuran-2-yl)imidazo[1,2-b]pyridazin-6-yl]oxy}-3-phenyl-propan-2-amine], the IC50 is 27 nM against MKNK1 [1] and 54 nM at MKNK1 [2].

As for `NC1(COc2ccc3ncc(-c4cc5ccccc5o4)n3n2)CC1` [Example 51, 1-({[3-(1-Benzofuran-2-yl)imidazo[1,2-b]pyridazin-6-yl]oxy}methyl)cyclo-propanamine], the results for the IC50 on MKNK1 [1] and against MKNK1 [2] were 29 nM and 74 nM, respectively.

Turning to `NCC(COc1ccc2ncc(-c3cc4ccccc4o3)n2n1)c1ccccc1` (stereo not shown) [Example 52, 3-{[3-(1-Benzofuran-2-yl)imidazo[1,2-b]pyridazin-6-yl]oxy}-2-phenylpropan-1-amine], the IC50 turned out to be 17 nM at MKNK1 [1] and 30 nM on MKNK1 [2].
